Data as given in the supplement of paper PMC10307832.

Columns and labels:
[1] = compound: COc1cc(-c2nn([C@H]3CC[C@H](N4CCN(C(C)=O)CC4)CC3)c3ncnc(N)c23)ccc1NC(=O)c1cc2ccccc2n1C + Cc1nc(Nc2ncc(C(=O)Nc3c(C)cccc3Cl)s2)cc(N2CCN(CCO)CC2)n1 [Dasatinib] (partner 0.075 µM); test: relative viability (nuclei count vs DMSO), 5 days (fraction); higher = more cells survive
Method in brief: (§1)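 Medians of duplicate plates are given as relative viability. That measure is the nuclei count in treated wells divided by the count in vehicle wells. Counts were taken on 4× images of lung cancer cell lines in 1536-well plates, 5 days after pin-tool dosing the day after seeding with one drug alone or a fixed anchor-drug dose plus five library-drug doses (not always all listed) in √10 steps.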

Midostaurin + Trametinib = compound: CO[C@@H]1[C@H](N(C)C(=O)c2ccccc2)C[C@H]2O[C@]1(C)n1c3ccccc3c3c4c(c5c6ccccc6n2c5c31)C(=O)NC4 [Midostaurin] + CC(=O)Nc1cccc(-n2c(=O)n(C3CC3)c(=O)c3c(Nc4ccc(I)cc4F)n(C)c(=O)c(C)c32)c1 [Trametinib] (partner 0.02 µM); test: as above
Method in brief: as §1

Cell Line | relative viability ([1]; first compound 0.0128 µM) | relative viability ([1]; first compound 0.04048 µM) | relative viability ([1]; first compound 0.128 µM) | relative viability ([1]; first compound 1.28 µM) | relative viability (Midostaurin + Trametinib; first compound 0.01 µM) | relative viability (Midostaurin + Trametinib; first compound 0.03162 µM) | relative viability (Midostaurin + Trametinib; first compound 0.1 µM) | relative viability (Midostaurin + Trametinib; first compound 0.3162 µM)
HCC-366 | 0.711 | 0.517 | 0.667 | 0.607 | 0.304 | 0.33 | 0.283 | 0.122
EMC-BAC-2 | 0.309 | 0.391 | 0.244 | 0.481 | 0.853 | 0.791 | 0.876 | 0.699
NCI-H2405 | 0.252 | 0.216 | 0.192 | 0.179 | 0.615 | 0.562 | 0.61 | 0.607
NCI-H358 | 0.188 | 0.138 | 0.151 | 0.163 | 0.146 | 0.158 | 0.133 | 0.14
NCI-H1944 | 0.221 | 0.203 | 0.224 | 0.206 | 0.419 | 0.398 | 0.39 | 0.413
NCI-H1648 | – | – | – | – | 0.532 | – | – | 0.432
EPLC-272H | 0.407 | – | 0.391 | 0.347 | 0.352 | 0.304 | 0.28 | 0.301
NCI-H1915 | 0.313 | 0.278 | 0.271 | 0.333 | 0.329 | 0.312 | 0.258 | 0.271
NCI-H596 | 0.564 | 0.73 | 0.573 | 0.559 | 0.835 | 0.847 | 0.737 | 0.999
NCI-H322M | 0.262 | 0.256 | 0.234 | 0.253 | 0.483 | 0.567 | 0.536 | 0.568
NCI-H2228 | 0.474 | 0.436 | 0.52 | 0.456 | 0.522 | 0.634 | 0.792 | 0.723
NCI-H2342 | 0.312 | 0.309 | 0.335 | 0.323 | 0.895 | 0.735 | 0.89 | 0.778
NCI-H647 | 0.155 | 0.227 | 0.164 | 0.203 | 0.491 | 0.593 | 0.552 | 0.372
SK-MES-1 | 0.44 | 0.34 | 0.378 | 0.384 | 0.57 | 0.565 | 0.526 | 0.493
NCI-H2170 | 0.554 | 0.494 | 0.559 | 0.592 | 0.965 | 0.9 | 0.894 | 1.02
NCI-H2085 | 0.237 | 0.246 | 0.249 | 0.219 | 0.526 | 0.53 | 0.471 | 0.608
SW 1573 | 0.496 | 0.743 | 0.627 | 0.612 | 0.547 | 0.788 | 0.471 | 0.465
NCI-H727 | 0.322 | – | 0.296 | 0.381 | 0.381 | 0.444 | 0.369 | 0.375

Cell Line | relative viability ([1]; first compound 0.0128 µM) | relative viability ([1]; first compound 0.04048 µM) | relative viability ([1]; first compound 0.128 µM) | relative viability ([1]; first compound 1.28 µM) | relative viability (Midostaurin + Trametinib; first compound 0.01 µM) | relative viability (Midostaurin + Trametinib; first compound 0.03162 µM) | relative viability (Midostaurin + Trametinib; first compound 0.1 µM) | relative viability (Midostaurin + Trametinib; first compound 0.3162 µM)
NCI-H441 | 0.628 | 0.463 | 0.657 | 0.536 | 0.418 | 0.373 | 0.516 | 0.343
LOU-NH91 | 0.557 | 0.545 | 0.531 | 0.54 | 0.758 | 0.717 | 0.814 | 0.804
NCI-H3122 | 0.854 | – | 0.775 | 0.809 | 0.244 | 0.191 | 0.214 | 0.264
NCI-H460 | 0.526 | 0.386 | 0.475 | 0.507 | 0.176 | 0.174 | 0.116 | 0.12
NCI-H650 | 0.475 | 0.592 | 0.462 | 0.456 | 1.03 | 1.07 | 1 | 0.945
NCI-H661 | 0.923 | 0.765 | 0.829 | 0.94 | 0.597 | 0.617 | 0.61 | 0.534
NCI-H1793 | 0.392 | 0.35 | 0.401 | 0.346 | 0.403 | 0.402 | 0.438 | 0.428
NCI-H1734 | 0.429 | 0.599 | 0.531 | 0.516 | 0.625 | 0.678 | 0.691 | 0.685
LXF-289 | 0.291 | 0.314 | 0.237 | 0.227 | 0.687 | 0.653 | 0.671 | 0.685
H3255 | 0.345 | 0.313 | 0.434 | 0.307 | 0.61 | 0.608 | 0.656 | 0.628
201T | 0.617 | 0.511 | 0.537 | 0.448 | 0.714 | 0.707 | 0.755 | 0.795
NCI-H2126 | 0.635 | 0.609 | 0.626 | 0.506 | 0.509 | 0.562 | 0.553 | 0.597
HOP-62 | 0.704 | 0.514 | 0.632 | 0.765 | 0.473 | 0.42 | 0.362 | 0.362
CAL-12T | 0.418 | 0.252 | 0.487 | 0.436 | 0.399 | 0.298 | 0.331 | 0.33
NCI-H520 | 0.211 | 0.273 | 0.236 | 0.307 | 0.768 | 0.717 | 0.714 | 0.583
NCI-H1755 | 0.452 | 0.386 | 0.43 | 0.433 | 0.75 | 0.811 | 0.798 | 0.72
NCI-H2023 | 0.559 | 0.668 | 0.524 | 0.663 | 0.499 | 0.618 | 0.375 | 0.276
NCI-H2009 | 0.298 | 0.267 | 0.31 | 0.382 | 0.263 | 0.262 | 0.292 | 0.319
